Experimental data taken from patent US20220073495A1 (priority 2020, published 2022).

Legend:
A/WSN/33 [1] = experiment: microbe, parasite or virus in culture; format: cell-based, influenza virus; conditions: unidentified influenza virus, WSN, A549, 24 h
viral M mRNA = experiment: smRNA-FISH of M mRNA in WSN-infected cells; format: cell-based, influenza virus (WSN); conditions: 2.5 μM, WSN MOI 2 for 8 h
HA mRNA = experiment: smRNA-FISH of HA mRNA in WSN-infected cells; format: cell-based, influenza virus (WSN); conditions: 2.5 μM, WSN MOI 2 for 8 h
NS mRNA = experiment: smRNA-FISH of NS mRNA in WSN-infected cells; format: cell-based, influenza virus (WSN); conditions: 2.5 μM, WSN MOI 2 for 8 h
[2] = test system: bulk cellular poly(A) RNA; experiment: RNA-FISH of poly(A) RNA in uninfected cells; format: cell-based, Human; conditions: 2.5 μM
cellular GAPDH mRNA = experiment: smRNA-FISH of GAPDH mRNA in uninfected cells; format: cell-based, Human; conditions: 2.5 μM
M1 to M2 splicing = format: cell-based, influenza virus (WSN); conditions: 1 μM or 2.5 μM, WSN MOI 2 for 8 h
NS1 to NS2 splicing = experiment: qPCR of relative ratio of NS2 to NS1 mRNAs; format: cell-based, influenza virus (WSN); conditions: 1 μM or 2.5 μM, WSN MOI 2 for 8 h
cellular ATP levels = experiment: Cellular ATP levels (CellTiter-Glo); format: cell-based; conditions: 2.5 μM, 24 h
Protocol: FIG. 30 depicts cellular ATP levels measured in cells treated with 0.1% DMSO or 2.5 μM of compound 2 at 24 h. Four independent experiments were performed and each contained 6 technical replicates.
ATP was measured by luminescence using the CellTiter-Glo kit (Promega) according to the manufacturer's instructions.

cellular RNAs = experiment: Cell fractionation and RNAseq of poly(A) RNA; format: cell-based, human; conditions: 2.5 μM, 9 hours, cutoff 1.5-fold
[3] = test system: viral proteins (M1, M2, NA, HA); format: cell-based, A/WSN33
A/WSN/33 (H1N1) = format: cell-based, influenza A virus
A/Vietnam/1203/04 (H5N1) = format: cell-based, influenza A virus
A/Panama/99 (H3N2) = format: cell-based, influenza A virus
A/WSN/33 [4] = format: cell-based, influenza virus
[5] = test system: primary human bronchial epithelial cells (HBEC); experiment: Cell viability of primary human bronchial epithelial cells (CellTiter-Glo); format: cell-based; conditions: 24 h
Protocol: FIG. 38 depicts compound 2 inhibiting influenza virus replication in primary human bronchial epithelial cells at non-toxic concentrations. […] (B) Cell viability was monitored at 24 h after treatment with 0.1% DMSO or compound 2 at the depicted concentrations using CellTiter-Glo. Three independent experiments were performed.

in vitro = conditions: human, A549 cells
A549 cells = experiment: MTT cytotoxicity assay

Q: For `O=C(CSc1nc2ccccc2[nH]1)Nc1ccc(Br)cn1` [Compound 2, 2-((1H-benzo[d]imidazol-2-yl)thio)-N-(5-bromopyridin-2-yl)acetamide], which IC50 (A/WSN/33 [1]; read-out: WSN IC50, A549 cells, A/WSN/33 MOI 0.01, 24 h post infection, NP-positive cells) is on record?
A: 3.18 µM

Q: And the IC90 (A/WSN/33 [1]; read-out: WSN IC90, A549 cells, A/WSN/33 MOI 0.01, 24 h post infection, NP-positive cells)?
A: 16.9 µM

Q: What about the “nuclear export of viral M mRNA” value (viral M mRNA) of the same compound?
A: robustly inhibited

Q: And the “total M mRNA fluorescence intensity” value (viral M mRNA)?
A: did not alter

Q: What about the “nuclear export of HA mRNA” value (HA mRNA) of the same compound?
A: robustly inhibited

Q: And the “nuclear retention of NS mRNA” value (NS mRNA)?
A: weak nuclear retention

Q: What about the “total levels of the NS mRNA” value (NS mRNA) of the same compound?
A: not altered

Q: What about the “poly(A) RNA nuclear to cytoplasmic ratio” value [2] of the same compound?
A: slightly decreased

Q: And the “total levels of bulk cellular poly(A) RNA” value [2]?
A: did not affect

Q: What about the “GAPDH mRNA nuclear to cytoplasmic distribution” value (cellular GAPDH mRNA) of the same compound?
A: not affected

Q: And the “total levels of cellular GAPDH mRNA” value (cellular GAPDH mRNA)?
A: slightly decreased

Q: What about the “M1 to M2 splicing (relative ratio of M2 to M1 mRNAs)” value (M1 to M2 splicing) of the same compound?
A: No effect

Q: What about the “NS1 to NS2 splicing” value (NS1 to NS2 splicing) of the same compound?
A: slightly inhibited

Q: What about the “cellular ATP levels as a surrogate for cytotoxicity” value (cellular ATP levels) of the same compound?
A: no significant change

Q: What about the mRNAs down-regulated (cellular RNAs) of the same compound?
A: 829 mRNAs

Q: What about the “mRNAs more cytoplasmic compared to control cells” value (cellular RNAs) of the same compound?
A: 98 mRNAs

Q: And the “mRNAs preferentially retained in the nucleus” value (cellular RNAs)?
A: 96 mRNAs

Q: What about the mRNAs up-regulated (cellular RNAs) of the same compound?
A: 103 mRNAs

Q: And the “mRNAs with altered nuclear to cytoplasmic distribution” value (cellular RNAs)?
A: 194 mRNAs

Q: What about the “levels of the viral M1 and M2 proteins as well as NA and HA proteins” value [3] of the same compound?
A: decrease

Q: And the “IC50 in plaque assay relative to NP assay (less)” value (A/WSN/33 (H1N1))?
A: ~2 fold

Q: And the “viral replication (viral titer)” value (A/WSN/33 (H1N1))?
A: inhibited

Q: And the “viral replication (viral titer)” value (A/Vietnam/1203/04 (H5N1); A549 cells, MOI 0.01, 24 h)?
A: inhibited

Q: What about the “IC50 in plaque assay relative to NP assay (less)” value (A/Vietnam/1203/04 (H5N1); A/Vietnam/1203/04, plaque assay vs NP assay) of the same compound?
A: ~2 fold

Q: And the “IC50 in plaque assay relative to NP assay (less)” value (A/Panama/99 (H3N2))?
A: ~2 fold

Q: And the “viral replication (viral titer)” value (A/Panama/99 (H3N2))?
A: inhibited

Q: What about the “viral replication in primary human bronchial epithelial cells” value (A/WSN/33 [4]) of the same compound?
A: inhibited

Q: What about the “cell viability of HBEC” value [5] of the same compound?
A: non-toxic

Q: And the CC50 at 24 h (in vitro)?
A: > 50 µM

Q: What about the “24 h MTT CC10” value (A549 cells; 24 h, concurrent with immunostaining) of the same compound?
A: 5.839 µM

Q: What about the “cell viability at concentrations inhibiting replication” value (A549 cells; MTT, 24 h or 48 h) of the same compound?
A: did not significantly alter
